Patent US20250304587A1, “WEE1 INHIBITOR, PREPARATION THEREFOR AND USE THEREOF” (JIANGSU TASLY DIYI PHARMACEUTICAL CO., LTD., priority 2022, published 2025)
Where two headings read alike, the source gives them in different places.

What was measured:
[1] = Metabolic stability in liver microsomes, mouse; format: in vitro ADME
Description: (§1) Test Example 3: Evaluation of the Metabolic Stability of Liver Microsomes (Mouse and Human) In Vitro Microsomes were taken out from the −80° C. refrigerator, rapidly melted in a 37° C. water bath and placed on ice until ready to use. The test article was diluted with DMSO to prepare a 10 mM stock solution, and then diluted with acetonitrile to a 0.5 mM secondary stock solution. […] NADPH was diluted with Buffer C to a working solution of 6 mM for the starter solution. An acetonitrile solution containing an internal standard was prepared as the precipitant, and Verapamil-HCl was chosen as the internal standard at a concentration of 4 ng/ml. […] A separate plate with pointed bottom wells, noted as a precipitation plate, was added with 135 μL precipitant per well; 0 h samples were transferred to the plate after 10 min incubation and 15 μL of starter solution was added; the plate was placed on ice before centrifugation. The diluted starter solution was added in sufficient quantity to the dispensing plate to facilitate the multichannel pipette aspiration operation. The reaction was carried out on a warm incubation shaker and 15 μL of starter solution/sample is added to the plate using a multichannel pipette. The reaction was mixed with a slight shake to initiate the reaction, which was accurately timed and recorded using a timer; After the reaction time had elapsed, all the solution in the plate was aspirated using the multichannel pipette and added to the precipitation plate to terminate the reaction at that point in time. After all reactions had been terminated, the plates were shaken for ten minutes on a plate shaker at 600 rpm to precipitate the protein. The plate was centrifuged at 4° C. for 15 minutes at maximum rpm. 80 μL of supernatant was taken, 320 μL of pure water was added and mixed for LC-MS analysis.

[2] = Metabolic stability in liver microsomes, human; format: in vitro ADME
Description: as §1

[3] = Metabolic stability in liver microsomes, rat; format: in vitro ADME
Description: as §1, with “Microsomes” for “Test Example 3: Evaluation of the Metabolic Stability of Liver Microsomes (Mouse and Human) In Vitro Microsomes”

[4] = Metabolic stability in liver microsomes, dog; format: in vitro ADME
Description: as §1, with “Microsomes” for “Test Example 3: Evaluation of the Metabolic Stability of Liver Microsomes (Mouse and Human) In Vitro Microsomes”

[5] = Metabolic stability in liver microsomes, monkey; format: in vitro ADME
Description: as §1, with “Microsomes” for “Test Example 3: Evaluation of the Metabolic Stability of Liver Microsomes (Mouse and Human) In Vitro Microsomes”

[6] = Pharmacokinetics on single dose in rats (iv and po); format: in vivo, male SD rats
Description: Pharmacokinetic properties of the drug in male SD rats were evaluated by the same method with in vivo pharmacokinetic study with mice.

[7] = Pharmacokinetics on single dose in Beagle dogs (iv and po); format: in vivo, male Beagle dogs
Description: Pharmacokinetic properties of the drug in male Beagle dogs were evaluated by the same method with in vivo pharmacokinetic study with mice. The basic information is as follows: • Beagle: weighing 8-11 kg, purchased from Jiangsu Marshall Biotechnology Co., Ltd. • Dosage: 2 mg/kg (intravenous injection); 10 mg/kg (oral) • Solvent: 5% DMSO+5% Solutol+90% (20% HP-β-CD in Saline)

[8] = tested on: human colon cancer HT-29 cells xenograft; experiment: Anti-tumor efficacy, HT-29 xenograft (CDX model); format: in vivo, female BALB/c nude mice; details: HT-29 model, after 24 days
Description: (§2) Experimental method: BALB/c nude mice (provided by Charles River) were selected, 7-8 weeks old and weighing 19-22 g.
The prepared and cultured HT-29 cells were counted, and 5×10^6 HT-29 cells were mixed in 0.1 mL PBS solution and inoculated subcutaneously on the right wing of mice. When the cells became tumors and the average tumor volume reached 120 mm^3, they began to be grouped and administered. […] The experimental indicator was to check whether the tumor growth was inhibited. The formula for calculating the tumor volume was: V=0.5a×b^2, where a and b respectively indicated the long and short diameters of the tumor.
(§3) The anti-tumor effects of the compounds were evaluated by TGI (%).

[9] = tested on: human pancreatic cancer BxPC3 cells xenograft; experiment: Anti-tumor efficacy, BxPC3 xenograft (CDX model); format: in vivo, female BALB/c nude mice; details: after 40 days
Description: as §2
The prepared and cultured BxPC3 cells were counted, and 1×10^7 BxPC3 cells were mixed in 0.1 mL PBS solution and inoculated subcutaneously on the right wing of mice. When the cells became tumors and the average tumor volume reached 190 mm^3, they began to be grouped and administered. […] The experimental indicator was to check whether the tumor growth was inhibited. The formula for calculating the tumor volume was: V=0.5a×b^2, where a and b respectively indicated the long and short diameters of the tumor.
as §3

[10] = rat, in vivo; for Death Numbers / Death Rate: SD, 14 days
[11] = male, rat, plasma, SD rats, iv 1 mg/kg
[12] = male, rat, plasma, SD rats, po 10 mg/kg

## C=CCn1c(=O)c2cnc(Nc3ccc(N4CCN(C)CC4)cc3)nc2n1-c1cccc(C(C)(C)O)n1 [AZD1775, reference compound]
[1]; read-out: T1/2 liver microsomes Mouse
  half-life at 1 µM: 0.433 h
[2]; read-out: T1/2 liver microsomes Human
  half-life at 1 µM: 0.635 h
[3]; read-out: T1/2 liver microsomes Rat
  half-life at 1 µM: 0.635 h
[4]; read-out: T1/2 liver microsomes Dog
  half-life at 1 µM: 0.179 h
[5]; read-out: T1/2 liver microsomes Monkey
  half-life at 1 µM: 0.335 h
[6]; SD rats, po 10 mg/kg
  Cl: 170.8 mL/min/kg
  F: 121.8%
[6]; [11]
  AUC(0-t): 72.3 ng·h/mL
  clearance: 148 mL/min/kg
  half-life: 0.91 h
[6]; male, rat, plasma, SD rats, iv 1 mg/kg, read-out: C0
  C0: 101 ng/mL
[6]; [12]
  AUC(0-t): 881 ng·h/mL
  half-life: 2.68 h
[6]; male, rat, plasma, SD rats, po 10 mg/kg, read-out: Cmax
  Cmax: 188 ng/mL
[7]; iv 2 mg/kg
  Vss: 3.01 L/kg
[7]; male, dog, plasma, iv 2 mg/kg
  AUC(0-t): 877 ng·h/mL
  clearance: 44 mL/min/kg
  half-life: 1.03 h
[7]; male, dog, plasma, po 10 mg/kg
  AUC(0-t): 1620 ng·h/mL
  half-life: 2.34 h
[7]; male, dog, plasma, po 10 mg/kg, read-out: Cmax
  Cmax: 405 ng/mL
[7]; male, dog, plasma, po 10 mg/kg, read-out: Tmax
  Tmax: 1.67 h
[7]; po 10 mg/kg
  F: 37.9%
[8]; 60 mg/kg qd
  TGI: 54.5%
[9]; 60 mg/kg qd
  TGI: 57.6%
[10]; female, 100 mg/kg
  Death Numbers: 0
  Death Rate: 0%
[10]; female, 200 mg/kg
  Death Numbers: 0
  Death Rate: 0%
[10]; female, 300 mg/kg
  Death Numbers: 2
  Death Rate: 67%
[10]; male, 100 mg/kg
  Death Numbers: 0
  Death Rate: 0%
[10]; male, 200 mg/kg
  Death Numbers: 0
  Death Rate: 0%
[10]; male, 300 mg/kg
  Death Numbers: 0
  Death Rate: 0%

## [2H][C@]1(O)c2nc(-n3c4nc(Nc5ccc(N6CCC7(CCN(C)CC7)CC6)cc5)ncc4c(=O)n3CC=C)ccc2CCC12CC2 [Compound 37b]
[1]
  T1/2 liver microsomes Mouse: 0.63 h
[2]
  T1/2 liver microsomes Human: >2 h
[3]
  T1/2 liver microsomes Rat: >2 h
[4]
  T1/2 liver microsomes Dog: 1.16 h
[5]
  T1/2 liver microsomes Monkey: 0.633 h
[6]; SD rats, iv 1 mg/kg
  AUClast: 471 ng·h/mL
  C0: 313.2 ng/mL
  T1/2: 3.97 h
[6]; SD rats, po 10 mg/kg
  AUClast: 1131 ng·h/mL
  Cmax: 188.6 ng/mL
  F: 24.01%
  Tmax: 2.67 h
[6]; rats, compared with AZD1775
  Drug exposure (in words): obvious advantages in drug exposure
[7]; iv 2 mg/kg
  AUClast: 1602 ng·h/mL
  Cl: 21.8 mL/min/kg
  T1/2: 5.05 h
  Vss: 5.71 L/kg
[7]; po 10 mg/kg
  AUClast: 1816 ng·h/mL
  Cmax: 171 ng/mL
  F: 22.8%
  T1/2: 4.69 h
  Tmax: 2.00 h
[8]; 30 mg/kg qd
  TGI: 34.7%
[8]; 60 mg/kg qd
  TGI: 57.7%
[8]; 120 mg/kg qd
  TGI: 100.0%
[9]; 30 mg/kg qd
  TGI: 70.1%
[9]; 60 mg/kg qd
  TGI: 72.4%
[9]; 120 mg/kg qd
  TGI: 100.9%
[10]
  Maximum tolerated dose (in words): higher than that of the control compound AZD1775
